In patent US4427668A, “26-Hydroxycholesterol and derivatives and analogs thereof in regulation of cholesterol accumulation in body tissue” (New York University, priority 1982, dated 1984):

What was measured:
HMG-CoA reductase [1] = conditions: 2.5 μM, 5 hours; Chang et al, J. Biol. Chem. 256:6304 (1981); cited from earlier work
HMG-CoA reductase [2] = experiment: HMG-CoA reductase activity in Chinese hamster ovary (CHO-K1) cell culture, as mevalonate formed; format: cell-based; conditions: CHO-K1 cells
Description: The effect of 26-hydroxycholesterol on HMG-CoA reductase activity was determined using the procedures of Chang et al, J. Biol. Chem. 256:6304 (1981). Chinese hamster ovary cells, CHO-Kl cells (also referred to as wild type) were obtained from the American Type Culture Collection and grown in Falcon flasks on Ham's F-12 media containing 10% fetal calf serum. Approximately 21/2 days after cells were removed from the stock flask cultures and seeded into petri dishes (60 mm), each containing 0.03×10^6 cells, they were rinsed with phosphate-buffered saline (PBS) and then grown in F-12 media containing 10% delipidated fetal calf serum for 48 hours with one change of media. Following this, either fresh media (still with delipidated calf serum) or fresh media containing 0.14% DMSO alone or 26-hydroxycholesterol was added and the cells incubated for varying periods of time. Our final concentration of DMSO was less than Chang (0.14% vs. 0.3%) and comparison of HMG-CoA reductase activity at 5 hours with media not containing DMSO gives the same or slightly higher (not significant) values. Under these conditions, over 50% inhibition has been obtained using the 0.25 μM concentration of 26-hydroxycholesterol and incubating for 5 hours. Not only is the mean highly significant but none of the individual control flasks overlap with the individual flasks containing 26-hydroxycholesterol. Using a concentration 10 X greater (2.5 μM) of 25-hydroxycholesterol, Chang reported 80% inhibition at 5 hours. Table 1 below sets forth average results of this experiment when carried out on a single day. […] HMG-CoA reductase activity was determined using the double-label technique of Pitot et al, J. Lipid Res. 12:512 (1971) and the thin-layer separation of Shapiro et al, Anal. Biochem. 31:383 (1969). […] The mevalonlactone is separated by thin-layer chromatography and the ^14 C/^3 H ratio determined from which the total amount of ^14 C can be calculated (corrected for ^3 H recovered) and expressed per mg of cytosolic protein by the Lowry method.

Row | SMILES | inhibition of HMG-CoA reductase activity reported by Chang (HMG-CoA reductase [1]) | % Inhibition of HMG-CoA reductase activity (HMG-CoA reductase [2]; 0.25 μM in 0.14% DMSO, 5 hours incubation, average of a single day) | HmG Co-A Reductase Activity (as mevalonate formed) (HMG-CoA reductase [2]; 0.25 μM in 0.14% DMSO, 5 hours incubation, DMSO control 0.048) | inhibition of HMG-CoA reductase activity (HMG-CoA reductase [2]; 0.25 μM, incubating for 5 hours)
1 | C[C@H](CCCC(C)(C)O)[C@H]1CC[C@H]2[C@@H]3CC=C4C[C@@H](O)CC[C@]4(C)[C@H]3CC[C@]12C [25-hydroxycholesterol] | 80% |  |  | 
2 | C[C@@H](CO)CCC[C@@H](C)[C@H]1CC[C@H]2[C@@H]3CC=C4C[C@@H](O)CC[C@]4(C)[C@H]3CC[C@]12C [26-hydroxycholesterol] |  | 65% | 0.017 nMol/min/mg protein | over 50%
